Measurements from ChEMBL document CHEMBL6078649, “Discovery of Chalcone Derivatives as Bifunctional Molecules with Anti-SARS-CoV-2 and Anti-inflammatory Activities” (J Nat Prod, 2024).

Tested on: SARS-CoV-2
Test: Antiviral activity against SARS-CoV-2 infected in human Huh-7 cells harboring viral replicon/EGFP/Neo genes assessed as inhibition of EGFP expression incubated for 24 hrs
Format: functional, organism-based
Details: Severe acute respiratory syndrome coronavirus 2, Huh-7, 24 h

Going from `O=C(/C=C/c1c(Cl)c(O)c(O)c(O)c1Cl)c1ccc(F)cc1` to `O=C(/C=C/c1cc(O)c(O)c(O)c1)c1ccc(F)cc1`, the EC50 falls from 19.9 µM to 11.7 µM (1.7-fold).

`O=C(CCc1cc(O)c(O)c(O)c1)c1ccc(F)cc1` and `CC(=O)Oc1c(Cl)c(/C=C/C(=O)c2ccc(F)cc2)c(Cl)c(OC(C)=O)c1OC(C)=O` are within 1.5-fold of each other in EC50: 32.1 µM for the first, 40.3 µM for the second.
